Assay results taken from patent publication US12187723B2 (BRISTOL-MYERS SQUIBB COMPANY, priority 2019, dated 2025).

Tests used:
[1] = target: T1, human TLR7 (Homo sapiens, UniProt Q9NYK1); experiment: TLR7 inhibition reporter assay (HEK-Blue SEAP); format: cell-based; details: HEK-Blue cells overexpressing human TLR7, gardiquimod 7.5 μM, 22 hour incubation
T1 construct: host or cells: HEK-Blue cells
T1 sequence (Q9NYK1 27-1049): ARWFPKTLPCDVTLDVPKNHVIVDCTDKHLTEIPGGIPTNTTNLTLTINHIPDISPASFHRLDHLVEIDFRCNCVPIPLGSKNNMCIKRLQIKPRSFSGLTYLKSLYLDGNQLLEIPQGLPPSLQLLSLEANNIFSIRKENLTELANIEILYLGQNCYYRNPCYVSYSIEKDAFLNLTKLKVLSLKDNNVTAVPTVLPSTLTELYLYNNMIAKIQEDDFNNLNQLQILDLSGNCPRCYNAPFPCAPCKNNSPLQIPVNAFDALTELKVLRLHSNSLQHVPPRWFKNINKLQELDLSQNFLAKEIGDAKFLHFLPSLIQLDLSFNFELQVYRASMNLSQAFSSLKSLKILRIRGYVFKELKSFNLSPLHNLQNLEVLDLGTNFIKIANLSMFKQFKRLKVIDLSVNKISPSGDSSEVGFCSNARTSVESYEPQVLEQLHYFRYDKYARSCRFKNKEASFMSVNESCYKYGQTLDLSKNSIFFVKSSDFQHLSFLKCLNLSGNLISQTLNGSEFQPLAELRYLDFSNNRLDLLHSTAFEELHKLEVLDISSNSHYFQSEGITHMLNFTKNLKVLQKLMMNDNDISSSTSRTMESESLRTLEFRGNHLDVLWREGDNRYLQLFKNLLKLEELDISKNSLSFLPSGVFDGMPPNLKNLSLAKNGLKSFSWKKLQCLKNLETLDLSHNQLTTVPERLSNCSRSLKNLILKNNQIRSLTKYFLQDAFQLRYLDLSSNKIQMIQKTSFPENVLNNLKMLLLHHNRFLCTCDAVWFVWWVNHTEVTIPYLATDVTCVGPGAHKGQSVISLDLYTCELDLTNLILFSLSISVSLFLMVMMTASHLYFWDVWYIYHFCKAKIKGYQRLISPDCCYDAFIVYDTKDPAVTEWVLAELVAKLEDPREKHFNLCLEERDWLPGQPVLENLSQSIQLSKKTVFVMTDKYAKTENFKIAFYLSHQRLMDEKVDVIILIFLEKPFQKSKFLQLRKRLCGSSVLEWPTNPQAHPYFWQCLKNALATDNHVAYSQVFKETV
How it was run: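 Dose-response testing from 0.05 nM to 50 μM final was done on reporter cells for 22 hours at 37° C. Secreted SEAP was then detected, and inhibition was calculated as percent reduction of the agonist-plus-DMSO signal compared with wells given a known inhibitor.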

[2] = target: T2, human TLR9 (Homo sapiens, UniProt Q9NR96); experiment: TLR9 inhibition reporter assay (HEK-Blue SEAP); format: cell-based; details: HEK-Blue cells overexpressing human TLR9, ODN2006 5 nM, 22 hour incubation
T2 construct: host or cells: HEK-Blue cells
T2 sequence (Q9NR96 26-1032): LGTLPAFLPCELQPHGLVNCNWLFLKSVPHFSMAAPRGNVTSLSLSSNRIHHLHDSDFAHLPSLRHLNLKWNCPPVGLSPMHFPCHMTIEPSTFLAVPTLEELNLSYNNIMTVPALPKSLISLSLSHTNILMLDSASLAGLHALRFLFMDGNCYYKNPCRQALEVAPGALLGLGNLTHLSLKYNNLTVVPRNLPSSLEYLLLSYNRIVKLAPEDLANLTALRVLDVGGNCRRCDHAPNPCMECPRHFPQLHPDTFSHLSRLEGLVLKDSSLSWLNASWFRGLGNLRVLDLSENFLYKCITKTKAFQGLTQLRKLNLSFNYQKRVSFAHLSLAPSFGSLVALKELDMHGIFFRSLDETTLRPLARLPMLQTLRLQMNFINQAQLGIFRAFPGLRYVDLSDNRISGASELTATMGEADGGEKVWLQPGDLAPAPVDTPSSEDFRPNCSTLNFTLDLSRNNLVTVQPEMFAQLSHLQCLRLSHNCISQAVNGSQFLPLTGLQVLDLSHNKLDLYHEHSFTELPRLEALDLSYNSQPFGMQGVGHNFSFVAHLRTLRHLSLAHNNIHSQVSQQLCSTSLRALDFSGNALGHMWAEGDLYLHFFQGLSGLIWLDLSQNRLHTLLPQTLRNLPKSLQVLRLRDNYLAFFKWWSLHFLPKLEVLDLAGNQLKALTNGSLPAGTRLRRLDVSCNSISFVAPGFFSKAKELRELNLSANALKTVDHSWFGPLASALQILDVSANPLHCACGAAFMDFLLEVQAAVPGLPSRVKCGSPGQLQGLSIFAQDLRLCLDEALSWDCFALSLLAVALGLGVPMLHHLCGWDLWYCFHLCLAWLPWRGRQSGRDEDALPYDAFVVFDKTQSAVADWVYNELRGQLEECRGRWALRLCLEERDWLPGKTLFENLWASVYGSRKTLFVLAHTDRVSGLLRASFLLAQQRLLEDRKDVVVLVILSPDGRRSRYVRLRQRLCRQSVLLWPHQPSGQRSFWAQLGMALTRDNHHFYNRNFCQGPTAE
How it was run: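 Screening used HEK-Blue cells overexpressing one human TLR (7, 8 or 9) and an IFN-β minimal promoter–NF-κB/AP-1 SEAP construct. Stimulation lasted 22 h at 37 °C with receptor-specific agonist: gardiquimod, R848 or ODN2006 at 7.5 μM, 15.9 μM and 5 nM.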

Compound	IC50 [1]	IC50 [2]
Cc1cc2c(cc1-c1cc(C)c3ncnn3c1)[nH]c(=O)n2[C@H]1CCCN(C(=O)CN(C)C)C1 [Example 103, (S)-1-(1-(dimethylglycyl)piperidin-3-yl)-6-methyl-5-(8-methyl-[1,2,4]triazolo[1,5-a]pyridin-6-yl)-1,3-dihydro-2H-benzo[d]imidazol-2-one]	215 nM	4720 nM
COCCN1CCC[C@@H](n2c(=O)[nH]c3cc(-c4cc(OC)c5ncnn5c4)c(C)cc32)C1 [Example 98, (R)-5-(8-methoxy-[1,2,4]triazolo[1,5-a]pyridin-6-yl)-1-(1-(2-methoxyethyl)piperidin-3-yl)-6-methyl-1,3-dihydro-2H-benzo[d]imidazol-2-one]	20.5 nM	5910 nM
CCN1CCC(n2c(=O)[nH]c3cc(-c4cc(C)c5ncnn5c4)cc(C)c32)CC1 [Example 108, 1-(1-ethylpiperidin-4-yl)-7-methyl-5-(8-methyl-[1,2,4]triazolo[1,5-a]pyridin-6-yl)-1,3-dihydro-2H-benzo[d]imidazol-2-one]	11.5 nM	1160 nM
COc1cc(-c2cc3[nH]c(=O)n(C4CCN(C5CCOC5)CC4)c3cc2C(C)C)cn2ncnc12 (stereo not drawn) [Example 162, 6-isopropyl-5-(8-methoxy-[1,2,4]triazolo[1,5-a]pyridin-6-yl)-1-(1-(tetrahydrofuran-3-yl)piperidin-4-yl)-1,3-dihydro-2H-benzo[d]imidazol-2-one]	73 nM	> 50000 nM
COCCN1CCC[C@@H](n2c(=O)[nH]c3cc(-c4cc(OC)c5ncnn5c4)c(C(F)(F)F)cc32)C1 [Example 118, (R)-5-(8-methoxy-[1,2,4]triazolo[1,5-a]pyridin-6-yl)-1-(1-(2-methoxyethyl)piperidin-3-yl)-6-(trifluoromethyl)-1,3-dihydro-2H-benzo[d]imidazol-2-one]	26.5 nM	18100 nM
Cc1cc2c(cc1-c1cc(C)c3ncnn3c1)[nH]c(=O)n2[C@@H]1CCCN(CC(=O)N(C)C)C1 [Example 95, (R)—N,N-dimethyl-2-(3-(6-methyl-5-(8-methyl-[1,2,4]triazolo[1,5-a]pyridin-6-yl)-2-oxo-2,3-dihydro-1H-benzo[d]imidazol-1-yl)piperidin-1-yl)acetamide]	117 nM	14600 nM
COc1cc(-c2cc3[nH]c(=O)n([C@H]4CCCN(C(C)C)C4)c3cc2C(C)C)cn2ncnc12 [Example 120, (S)-6-isopropyl-1-(1-isopropylpiperidin-3-yl)-5-(8-methoxy-[1,2,4]triazolo[1,5-a]pyridin-6-yl)-1,3-dihydro-2H-benzo[d]imidazol-2-one]	0.64 nM	1940 nM
Cc1cc(-c2cc(C)c3ncnn3c2)cc2[nH]c(=O)n(C3CCN(C)CC3)c12 [Example 106, 7-methyl-5-(8-methyl-[1,2,4]triazolo[1,5-a]pyridin-6-yl)-1-(1-methylpiperidin-4-yl)-1,3-dihydro-2H-benzo[d]imidazol-2-one]	29.7 nM	3740 nM

Next, values leading:

IC50 [1]	IC50 [2]	Compound
3.7 nM	14300 nM	Cc1c(-c2cc3[nH]c(=O)n([C@@H]4CCCN(C(C)C)C4)c3cc2C(C)C)cn2ncnc2c1C [Example 145, (R)-5-(7,8-dimethyl-[1,2,4]triazolo[1,5-a]pyridin-6-yl)-6-isopropyl-1-(1-isopropylpiperidin-3-yl)-1,3-dihydro-2H-benzo[d]imidazol-2-one]
1.9 nM	14900 nM	CCc1cc2c(cc1-c1cc(OC)c3ncnn3c1)[nH]c(=O)n2[C@H]1CC[C@@H](NC2CCOCC2)CC1 [Example 166, 6-ethyl-5-(8-methoxy-[1,2,4]triazolo[1,5-a]pyridin-6-yl)-1-((1s,4s)-4-((tetrahydro-2H-pyran-4-yl)amino)cyclohexyl)-1,3-dihydro-2H-benzo[d]imidazol-2-one]
44 nM	> 50000 nM	COc1cc(-c2cc3[nH]c(=O)n([C@H]4CCCN(CC5CC5)C4)c3cc2C(C)C)cn2ncnc12 (single isomer, unassigned) [Example 128]
2.18 nM	14900 nM	COc1cc(-c2cc3[nH]c(=O)n([C@@H]4CCCN(C)C4)c3cc2C(C)C)cn2ncnc12 [Example 136, (R)-6-isopropyl-5-(8-methoxy-[1,2,4]triazolo[1,5-a]pyridin-6-yl)-1-(1-methylpiperidin-3-yl)-1,3-dihydro-2H-benzo[d]imidazol-2-one]
2.12 nM	23500 nM	COc1cc(-c2cc3[nH]c(=O)n(C4CCN(C)CC4)c3cc2C(C)C)cn2ncnc12 [Example 154, 6-isopropyl-5-(8-methoxy-[1,2,4]triazolo[1,5-a]pyridin-6-yl)-1-(1-methylpiperidin-4-yl)-1,3-dihydro-2H-benzo[d]imidazol-2-one]
34.1 nM	7720 nM	COc1cc(-c2cc3[nH]c(=O)n([C@H]4CCCN(CC5CCOCC5)C4)c3cc2C(C)C)cn2ncnc12 [Example 125, (S)-6-isopropyl-5-(8-methoxy-[1,2,4]triazolo[1,5-a]pyridin-6-yl)-1-(1-((tetrahydro-2H-pyran-4-yl)methyl)piperidin-3-yl)-1,3-dihydro-2H-benzo[d]imidazol-2-one]
0.74 nM	7070 nM	COc1cc(-c2cc3[nH]c(=O)n([C@@H]4CCCN(C(C)C)C4)c3cc2C(C)C)cn2ncnc12 [Example 137, (R)-6-isopropyl-1-(1-isopropylpiperidin-3-yl)-5-(8-methoxy-[1,2,4]triazolo[1,5-a]pyridin-6-yl)-1,3-dihydro-2H-benzo[d]imidazol-2-one]
12.8 nM	3690 nM	COc1cc(-c2cc3[nH]c(=O)n([C@H]4CCCN(CC(C)C)C4)c3cc2C(C)C)cn2ncnc12 [Example 129, (S)-1-(1-isobutylpiperidin-3-yl)-6-isopropyl-5-(8-methoxy-[1,2,4]triazolo[1,5-a]pyridin-6-yl)-1,3-dihydro-2H-benzo[d]imidazol-2-one]
125 nM	> 50000 nM	COc1cc(-c2cc3[nH]c(=O)n([C@H]4CCCN(C5COC5)C4)c3cc2C(C)C)cn2ncnc12 [Example 123, (S)-6-isopropyl-5-(8-methoxy-[1,2,4]triazolo[1,5-a]pyridin-6-yl)-1-(1-(oxetan-3-yl)piperidin-3-yl)-1,3-dihydro-2H-benzo[d]imidazol-2-one]
8.58 nM	14100 nM	CCN1CCC[C@@H](n2c(=O)[nH]c3cc(-c4cc(OC)c5ncnn5c4)c(C(C)C)cc32)C1 (single isomer, unassigned) [Example 144]
